Reference: patent US7635788B2, “Alpha-amino acid derivatives with antiinflammatory activity” (Italfarmaco SpA, priority 2004, dated 2009)

Legend:
[1] = test system: TNFα production by peripheral blood mononucleocytes stimulated with LPS; experiment: Inhibition of TNFα production by human monocytes stimulated with LPS; type: cell-based; conditions: LPS 10 ng/ml, 24 hours, ELISA
Experimental: The compounds were dissolved in DMSO at a final concentration of 10 mM.
The solutions for the assay were prepared by diluting the mother solutions in RPMI 1640 with the addition of 1% FCS and 0.01% DMSO and were filtered with 0.2 μm filters.
The peripheral blood mononucleocytes were obtained from blood from healthy donors by separation in a Ficoll-Hypaque gradient [C. G. Figdor, et al. Blood, 1982, 60: 46-53]. The cells were sown in 96-well plates, at a concentration of approx. 500,000 cells per well, suspended in RPMI 1640 containing 1% FCS and were incubated at 37° C. in the presence of different concentrations (from 10^−6 to 10^−11M) of the compounds to be investigated. After 1 hour, LPS was added (at a final concentration of 10 ng/ml; obtained from E. coli 055:B5) and the plates were incubated at 37° C. for a further 24 hours. At the end of this period, the supernatants were collected and used for the determination of TNFα content by means of ELISA (DuoSet ELISA kit; R&D Systems, Minneapolis, Minn., USA).
The concentration of TNFα was calculated using a calibration curve and the IC50 values (the concentration which brings about 50% inhibition of the production of the cytokine) were calculated from the curve obtained by plotting the percentage inhibition values for each individual concentration of the compound under investigation.

[2] = test system: human hepatoma cell line Hep-G2; experiment: Cytotoxicity towards tumour cells in vitro (Cell Titer 96 formazane colorimetric assay); type: cell-based; conditions: 48 h, percentage inhibition of the formation of formazane relative to the control
Experimental: The cytotoxicity of some compounds described in the preceding Examples was evaluated in vitro on human hepatoma cell line Hep-G2, by means of a commercial colorimetric method (Cell Titer 96® Aque ous One Solution Cell Proliferation Assay—Promega); the method determines the number of viable cells on the basis of their capacity to metabolise a tetrazolium salt producing formazane. The quantity of formazane produced is proportional to the number of viable cells.
The Hep-G2 cells are distributed 96 well microplates at a density of 4×10^4 cells/well (100 μl), in M199 medium containing 10% foetal bovine serum and supplements (complete medium).
After 24 hours' incubation (37° C., 5% CO2, 90% humidity), the cells are washed once and the medium is replenished with 200 μl of complete medium containing the substances to be tested at the final concentration of 10^−5, 10^−6 and 10^−7M. The test is performed in triplicate.
The plates are incubated for a further 48 h, at the end of which 100 μl of medium are removed and 20 μl/well of staining solution are added in accordance with the supplier's instructions. Optical density (λ=490 nm) is read after 1 hour's incubation at 37° C. using a plate reader (Victor2—Wallac Perkin Elmer).

Row | IC50 ([1]; Monocyte) | IC50 [1] | SMILES | Cytotoxicity at 10^−5 M [2] | Cytotoxicity at 10^−6 M [2]
1 | 3 nM | – | O=C(NO)c1ccc(NC(=O)[C@@H](Cc2ccc3ccccc3c2)NC(=O)c2ccccc2)cc1 [Example 1a, 4-(2(R)-Benzoylamino-3-naphthalen-2-yl-propionylamino)-N-hydroxy-benzamide] | 75.2% | 22.6%
2 | 51.8 nM | – | CC(=O)N[C@H](Cc1ccc2ccccc2c1)C(=O)Nc1ccc(C(=O)NO)cc1 [Example 2b, 4-(2(R)-Acetylamino-3-naphthalen-2-yl-propionylamino)-N-hydroxy-benzamide] | 48.3% | 10.6%
3 | 55.9 nM | – | CC(=O)N[C@H](C(=O)Nc1ccc(C(=O)NO)cc1)C1Cc2ccccc2C1 [Example 2c, 4-(2(S)-Acetylamino-2-indan-2-yl-acetylamino)-N-hydroxy-benzamide] | 78.3% | 28.5%
4 | 4.4 nM | – | CC(=O)N[C@@H](Cc1ccc2ccccc2c1)C(=O)Nc1ccc(C(=O)NO)cc1 [Example 2d, 4-(2(S)-Acetylamino-3-naphthalen-2-yl-propionylamino)-N-hydroxy-benzamide] | 56.2% | 9.6%
5 | 12.5 nM | – | CC(=O)N[C@@H](Cc1ccccc1)C(=O)Nc1ccc(C(=O)NO)cc1 [Example 2e, 4-(2(S)-Acetylamino-3-phenyl-propionylamino)-N-hydroxy-benzamide] | 17.1% | 13.3%
6 | 72.1 nM | – | O=C(NO)c1ccc(NC(=O)[C@H](Cc2ccc(-c3ccccc3)cc2)NC(=O)c2ccccc2)cc1 [Example 2f, 4-(2(S)-Benzoylamino-3-biphenyl-4-yl-propionylamino)-N-hydroxy-benzamide] | 81.6% | 22.7%
7 | 6.1 nM | – | O=C(NO)c1ccc(NC(=O)[C@H](Cc2ccc3ccccc3c2)NC(=O)c2ccccc2)cc1 [Example 2g, 4-(2(S)-Benzoylamino-3-naphthalen-2-yl-propionylamino)-N-hydroxy-benzamide] | 76.5% | 43.2%
8 | 11.3 nM | – | O=C(NO)c1ccc(NC(=O)[C@H](Cc2ccccc2)NC(=O)c2ccccc2)cc1 [Example 2h, 4-(2(S)-Benzoylamino-3-phenyl-propionylamino)-N-hydroxy-benzamide] | 77.4% | 31.2%
9 | 13.3 nM | – | CC(=O)N[C@@H](Cc1ccc(O)cc1)C(=O)Nc1ccc(C(=O)NO)cc1 [Example 2i, 4-[2(S)-Acetylamino-3-(4-hydroxy-phenyl)-propionylamino]-N-hydroxy-benzamide] | 12.2% | 15.7%
10 | 4.6 nM | – | CC(=O)N[C@@H](Cc1ccc(C(F)(F)F)cc1)C(=O)Nc1ccc(C(=O)NO)cc1 [Example 2j, 4-[2(S)-Acetylamino-3-(4-trifluoromethyl-phenyl)-propionylamino]-N-hydroxy-benzamide] | 39.3% | 15.8%
11 | 148 nM | – | O=C(NO)c1ccc(NC(=O)[C@H](Cc2ccc(O)cc2)NC(=O)c2ccccc2)cc1 [Example 2k, 4-[2(S)-Benzoylamino-3-(4-hydroxy-phenyl)-propionylamino]-N-hydroxy-benzamide] | 54.4% | 27.7%
12 | 29.6 nM | – | Nc1ccc(C(=O)N[C@H](Cc2ccc3ccccc3c2)C(=O)Nc2ccc(C(=O)NO)cc2)cc1 [Example 2l, 4-Amino-N-[1(R)-(4-hydroxycarbamoyl-phenylcarbamoyl)-2-naphthalen-2-yl-ethyl]-benzamide] | 61.9% | 14.4%
13 | 26.7 nM | – | Nc1ccc(C(=O)N[C@@H](Cc2ccc3ccccc3c2)C(=O)Nc2ccc(C(=O)NO)cc2)cc1 [Example 2m, 4-Amino-N-[1(S)-(4-hydroxycarbamoyl-phenylcarbamoyl)-2-naphthalen-2-yl-ethyl]-benzamide] | 72.4% | 24.5%
14 | 6.8 nM | – | O=C(NO)c1ccc(NC(=O)[C@@H](Cc2ccc3ccccc3c2)NC(=O)c2cncc(Br)c2)cc1 [Example 2n, 5-Bromo-N-[1(R)-(4-hydroxycarbamoyl-phenylcarbamoyl)-2-naphthalen-2-yl-ethyl]-nicotinamide] | 68.2% | 15.9%
15 | 200 nM | – | O=C(NO)c1ccc(NC(=O)[C@H](Cc2ccc(C(F)(F)F)cc2)NC(=O)c2cncc(Br)c2)cc1 [Example 2o, 5-Bromo-N-[1(S)-(4-hydroxycarbamoyl-phenylcarbamoyl)-2-(4-trifluoromethyl-phenyl)-ethyl]-nicotinamide] | 72.4% | 34.8%
16 | 42 nM | – | O=C(NO)c1ccc(NC(=O)[C@H](Cc2ccc(-c3ccccc3)cc2)NC(=O)c2cncc(Br)c2)cc1 [Example 2p, 5-Bromo-N-[1(S)-(4-hydroxycarbamoyl-phenylcarbamoyl)-2-biphenyl-4-yl-ethyl]-nicotinamide] | 61.7% | 10.5%
17 | 22.9 nM | – | O=C(NO)c1ccc(NC(=O)[C@H](Cc2ccc3ccccc3c2)NC(=O)c2cncc(Br)c2)cc1 [Example 2q, 5-Bromo-N-[1(S)-(4-hydroxycarbamoyl-phenylcarbamoyl)-2-naphthalen-2-yl-ethyl]-nicotinamide] | 53.9% | 11.7%
18 | – | 1.7 nM | O=C(NO)c1ccc(NC(=O)[C@@H](Cc2ccc3ccccc3c2)NC(=O)c2ccc3c(c2)OCO3)cc1 [Example 2r, N-[1(R)-(4-hydroxycarbamoyl-phenylcarbamoyl)-2-naphthalen-2-yl-ethyl]-amide of benzo[1,3]dioxole-5-carboxylic acid] | 72.5% | 16.6%
19 | – | 1000 nM | O=C(NO)c1ccc(NC(=O)[C@H](Cc2ccc(O)cc2)NC(=O)c2ccc3c(c2)OCO3)cc1 [Example 2s, N-[1(S)-(4-hydroxycarbamoyl-phenylcarbamoyl)-2-(4-hydroxy-phenyl)-ethyl]-amide of benzo[1,3]dioxole-5-carboxylic acid] | – | –
20 | – | 4.8 nM | O=C(NO)c1ccc(NC(=O)[C@H](Cc2ccc3ccccc3c2)NC(=O)c2ccc3c(c2)OCO3)cc1 [Example 2t, N-[1(S)-(4-hydroxycarbamoyl-phenylcarbamoyl)-2-naphthalen-2-yl-ethyl]-amide of benzo[1,3]dioxole-5-carboxylic acid] | 79.3% | 48.5%
21 | – | 6.8 nM | O=C(NO)c1ccc(NC(=O)[C@H](Cc2cccc(F)c2)NC(=O)c2ccc3c(c2)OCO3)cc1 [Example 2u, N-[1(S)-(4-hydroxycarbamoyl-phenylcarbamoyl)-2-(3-fluoro-phenyl)-ethyl]-amide of benzo[1,3]dioxole-5-carboxylic acid] | 62.9% | 12.9%
22 | – | 16.8 nM | O=C(NO)c1ccc(NC(=O)[C@@H](Cc2ccc3ccccc3c2)NC(=O)c2ccc3ccccc3c2)cc1 [Example 2v, N-[1(R)-(4-hydroxycarbamoyl-phenylcarbamoyl)-2-naphthalen-2-yl-ethyl]-amide of naphthalene-2-carboxylic acid] | 69.4% | 11.8%
23 | – | 23.7 nM | O=C(NO)c1ccc(NC(=O)[C@H](Cc2ccc(C(F)(F)F)cc2)NC(=O)c2ccc3ccccc3c2)cc1 [Example 2w, N-[1(S)-(4-hydroxycarbamoyl-phenylcarbamoyl)-2-(4-trifluoromethyl-phenyl)-ethyl]-amide of naphthalene-2-carboxylic acid] | 65.7% | 25.3%
24 | – | 8.6 nM | O=C(NO)c1ccc(NC(=O)[C@H](Cc2ccccc2)NC(=O)c2ccc3ccccc3c2)cc1 [Example 2x, N-[1(S)-(4-hydroxycarbamoyl-phenylcarbamoyl)-2-phenyl-ethyl]-amide of naphthalene-2-carboxylic acid] | 77.3% | 15.3%
